Results as given in patent publication US9593305B2, “Differentiation of pluripotent stem cells” (Janssen Biotech, Inc., priority 2008, dated 2017).

Tested on: H1 human embryonic stem cells
Test: Secondary assay: compound combined with individual growth factors or small molecules, no activin A (Example 5, Table 4);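 as to Cell Number, Average Total Cell Number: Four-day assay with feeding on alternate days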;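 as to Sox17 Expression, Average Total Intensity: Four-day assay with feeding on alternate days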
Format: cell-based
[1] = no AA (with Wnt3a), bicuculline
[2] = no AA (with Wnt3a), EGF + FGF4 + PDGF-A + Muscimol
[3] = no AA (with Wnt3a), EGF + FGF4 + PDGF-A + VEGF
[4] = no AA (with Wnt3a), EGF + FGF4 + PDGF-AB
[5] = no AA (with Wnt3a), EGF + FGF4 + PDGF-AB + Muscimol
[6] = no AA (with Wnt3a), EGF + PDGF-A + VEGF
[7] = no AA (with Wnt3a), FGF4 + PDGF-A + VEGF

CCN1CC(=O)NCCCc2cncc(c2)-c2ncnc(n2)Nc2cc(Cl)cc(c2)C1 [Compound 35, 10-Chloro-14-ethyl-3,5,7,14,17,23,27-heptaazatetracyclo[19.3.1.1˜2,6˜0.1˜8,12]Theptacosa-1(25), 2(27), 3,5,8(26), 9,11,21,23-nonaen-16-one]
Cell Number, % of positive control (no AA (with Wnt3a), BMP1): 210.81% | Cell Number, Average Total Cell Number (no AA (with Wnt3a), BMP1): 18849 | Sox17 Expression, % of positive control (no AA (with Wnt3a), BMP1): 6.59% | Sox17 Expression, Average Total Intensity (no AA (with Wnt3a), BMP1): 1.29E+07 | Cell Number, % of positive control (no AA (with Wnt3a), BMP2): 181.38% | Cell Number, Average Total Cell Number (no AA (with Wnt3a), BMP2): 16218 | Sox17 Expression, % of positive control (no AA (with Wnt3a), BMP2): 4.55% | Sox17 Expression, Average Total Intensity (no AA (with Wnt3a), BMP2): 8.89E+06 | Cell Number, % of positive control (no AA (with Wnt3a), BMP2/7): 134.67% | Cell Number, Average Total Cell Number (no AA (with Wnt3a), BMP2/7): 12042 | Sox17 Expression, % of positive control (no AA (with Wnt3a), BMP2/7): 3.62% | Sox17 Expression, Average Total Intensity (no AA (with Wnt3a), BMP2/7): 7.08E+06 | Cell Number, % of positive control (no AA (with Wnt3a), BMP4): 187.31% | Cell Number, Average Total Cell Number (no AA (with Wnt3a), BMP4): 16748 | Sox17 Expression, % of positive control (no AA (with Wnt3a), BMP4): 4.59% | Sox17 Expression, Average Total Intensity (no AA (with Wnt3a), BMP4): 8.97E+06 | Cell Number, % of positive control (no AA (with Wnt3a), BMP7): 224.91% | Cell Number, Average Total Cell Number (no AA (with Wnt3a), BMP7): 20111 | Sox17 Expression, % of positive control (no AA (with Wnt3a), BMP7): 4.12% | Sox17 Expression, Average Total Intensity (no AA (with Wnt3a), BMP7): 8.05E+06 | Cell Number, % of positive control (no AA (with Wnt3a), Butyrate): 159.24% | Cell Number, Average Total Cell Number (no AA (with Wnt3a), Butyrate): 14238 | Sox17 Expression, % of positive control (no AA (with Wnt3a), Butyrate): −0.94% | Sox17 Expression, Average Total Intensity (no AA (with Wnt3a), Butyrate): −1.85E+06 | Cell Number, % of positive control (no AA (with Wnt3a), EGF): 216.23% | Cell Number, Average Total Cell Number (no AA (with Wnt3a), EGF): 19334 | Sox17 Expression, % of positive control (no AA (with Wnt3a), EGF): 33.86% | Sox17 Expression, Average Total Intensity (no AA (with Wnt3a), EGF): 6.62E+07 | Cell Number, % of positive control (no AA (with Wnt3a), FGF4): 49.32% | Cell Number, Average Total Cell Number (no AA (with Wnt3a), FGF4): 4410 | Sox17 Expression, % of positive control (no AA (with Wnt3a), FGF4): 17.04% | Sox17 Expression, Average Total Intensity (no AA (with Wnt3a), FGF4): 3.33E+07 | Cell Number, % of positive control (no AA (with Wnt3a), LY294002): 205.49% | Cell Number, Average Total Cell Number (no AA (with Wnt3a), LY294002): 18374 | Sox17 Expression, % of positive control (no AA (with Wnt3a), LY294002): 5.28% | Sox17 Expression, Average Total Intensity (no AA (with Wnt3a), LY294002): 1.03E+07 | Cell Number, % of positive control (no AA (with Wnt3a), Muscimol): 211.00% | Cell Number, Average Total Cell Number (no AA (with Wnt3a), Muscimol): 18867 | Sox17 Expression, % of positive control (no AA (with Wnt3a), Muscimol): 13.35% | Sox17 Expression, Average Total Intensity (no AA (with Wnt3a), Muscimol): 2.61E+07 | Cell Number, % of positive control (no AA (with Wnt3a), PD98059): 211.11% | Cell Number, Average Total Cell Number (no AA (with Wnt3a), PD98059): 18877 | Sox17 Expression, % of positive control (no AA (with Wnt3a), PD98059): 6.64% | Sox17 Expression, Average Total Intensity (no AA (with Wnt3a), PD98059): 1.30E+07 | Cell Number, % of positive control (no AA (with Wnt3a), PDGF-A): 188.84% | Cell Number, Average Total Cell Number (no AA (with Wnt3a), PDGF-A): 16885 | Sox17 Expression, % of positive control (no AA (with Wnt3a), PDGF-A): 22.94% | Sox17 Expression, Average Total Intensity (no AA (with Wnt3a), PDGF-A): 4.48E+07 | Cell Number, % of positive control (no AA (with Wnt3a), PDGF-AB): 186.34% | Cell Number, Average Total Cell Number (no AA (with Wnt3a), PDGF-AB): 16662 | Sox17 Expression, % of positive control (no AA (with Wnt3a), PDGF-AB): 25.33% | Sox17 Expression, Average Total Intensity (no AA (with Wnt3a), PDGF-AB): 4.95E+07 | Cell Number, % of positive control (no AA (with Wnt3a), PDGF-B): 158.46% | Cell Number, Average Total Cell Number (no AA (with Wnt3a), PDGF-B): 14168 | Sox17 Expression, % of positive control (no AA (with Wnt3a), PDGF-B): 7.76% | Sox17 Expression, Average Total Intensity (no AA (with Wnt3a), PDGF-B): 1.52E+07 | Cell Number, % of positive control (no AA (with Wnt3a), PDGF-C): 186.12% | Cell Number, Average Total Cell Number (no AA (with Wnt3a), PDGF-C): 16642 | Sox17 Expression, % of positive control (no AA (with Wnt3a), PDGF-C): 9.46% | Sox17 Expression, Average Total Intensity (no AA (with Wnt3a), PDGF-C): 1.85E+07 | Cell Number, % of positive control (no AA (with Wnt3a), PDGF-D): 197.03% | Cell Number, Average Total Cell Number (no AA (with Wnt3a), PDGF-D): 17618 | Sox17 Expression, % of positive control (no AA (with Wnt3a), PDGF-D): 9.41% | Sox17 Expression, Average Total Intensity (no AA (with Wnt3a), PDGF-D): 1.84E+07 | Cell Number, % of positive control (no AA (with Wnt3a), U0124): 184.97% | Cell Number, Average Total Cell Number (no AA (with Wnt3a), U0124): 16539 | Sox17 Expression, % of positive control (no AA (with Wnt3a), U0124): 3.86% | Sox17 Expression, Average Total Intensity (no AA (with Wnt3a), U0124): 7.54E+06 | Cell Number, % of positive control (no AA (with Wnt3a), U0126): 223.24% | Cell Number, Average Total Cell Number (no AA (with Wnt3a), U0126): 19961 | Sox17 Expression, % of positive control (no AA (with Wnt3a), U0126): −0.29% | Sox17 Expression, Average Total Intensity (no AA (with Wnt3a), U0126): −5.75E+05 | Cell Number, % of positive control (no AA (with Wnt3a), VEGF): 204.25% | Cell Number, Average Total Cell Number (no AA (with Wnt3a), VEGF): 18263 | Sox17 Expression, % of positive control (no AA (with Wnt3a), VEGF): 17.98% | Sox17 Expression, Average Total Intensity (no AA (with Wnt3a), VEGF): 3.51E+07 | Cell Number, % of positive control [1]: 215.98% | Cell Number, Average Total Cell Number [1]: 19312 | Sox17 Expression, % of positive control [1]: 1.00% | Sox17 Expression, Average Total Intensity [1]: 1.95E+06 | Cell Number, % of positive control (no AA (with Wut3a), BMP6): 199.50% | Cell Number, Average Total Cell Number (no AA (with Wut3a), BMP6): 17838 | Sox17 Expression, % of positive control (no AA (with Wut3a), BMP6): 3.75% | Sox17 Expression, Average Total Intensity (no AA (with Wut3a), BMP6): 7.32E+06

O=C1NCCCc2cncc(c2)-c2ncnc(n2)Nc2cccc(c2)CN2CCCC1C2 (centres unmarked) [Compound 17, 3,5,7,14,20,26,31-Heptaazapentacyclo[22.3.1.1-2,6˜1˜8,12˜1˜14,18˜]hentriaconta-1(28), 2(31), 3,5,8(30), 9,11,24,26-nonaen-19-one]
Cell Number, % of positive control (no AA (with Wnt3a), EGF): 73.43% | Cell Number, Average Total Cell Number (no AA (with Wnt3a), EGF): 6942 | Sox17 Expression, % of positive control (no AA (with Wnt3a), EGF): 0.74% | Sox17 Expression, Average Total Intensity (no AA (with Wnt3a), EGF): 1.27E+06 | Cell Number, % of positive control (no AA (with Wnt3a), EGF + FGF4): 60.69% | Cell Number, Average Total Cell Number (no AA (with Wnt3a), EGF + FGF4): 5738 | Sox17 Expression, % of positive control (no AA (with Wnt3a), EGF + FGF4): 1.83% | Sox17 Expression, Average Total Intensity (no AA (with Wnt3a), EGF + FGF4): 3.14E+06 | Cell Number, % of positive control [2]: 144.37% | Cell Number, Average Total Cell Number [2]: 13649 | Sox17 Expression, % of positive control [2]: 8.43% | Sox17 Expression, Average Total Intensity [2]: 1.45E+07 | Cell Number, % of positive control [3]: 110.85% | Cell Number, Average Total Cell Number [3]: 10480 | Sox17 Expression, % of positive control [3]: 5.23% | Sox17 Expression, Average Total Intensity [3]: 8.97E+06 | Cell Number, % of positive control [4]: 47.10% | Cell Number, Average Total Cell Number [4]: 4453 | Sox17 Expression, % of positive control [4]: 0.54% | Sox17 Expression, Average Total Intensity [4]: 9.30E+05 | Cell Number, % of positive control [5]: 109.91% | Cell Number, Average Total Cell Number [5]: 10391 | Sox17 Expression, % of positive control [5]: 5.20% | Sox17 Expression, Average Total Intensity [5]: 8.92E+06 | Cell Number, % of positive control [6]: 60.59% | Cell Number, Average Total Cell Number [6]: 5728 | Sox17 Expression, % of positive control [6]: 1.24% | Sox17 Expression, Average Total Intensity [6]: 2.14E+06 | Cell Number, % of positive control [7]: 139.59% | Cell Number, Average Total Cell Number [7]: 13198 | Sox17 Expression, % of positive control [7]: 7.54% | Sox17 Expression, Average Total Intensity [7]: 1.29E+07
